In patent US20250275910A1, “Cosmetic application of viniferine” (Tomcat International Limited, priority 2021, published 2025):

What was measured:
[1] = test system: human epidermal melanocytes (HEM); test: Melanin content test on human epidermal melanocytes exposed to blue light; format: cell-based; conditions: total 120 J/cm^2
Protocol: In the following experimental part, the preventive effect of ε-viniferine (trans-ε-viniferine) at different concentrations, on the damage caused by blue light at two wavelengths (412 nm, characteristic of solar blue light and 450 nm, characteristic of blue light from screens) was evaluated by means of a test for determining the melanin content of cells treated with a composition of the invention. In order to determine the maximum concentrations to be tested, the toxicity of different concentrations of the compositions tested was first evaluated via the MTT test, a live cell counting test involving the MTT tetrazolium salt as a reagent and well known to the professional.
The tests were carried out on human epidermal melanocytes (HEM), which are cells that produce melanin and are therefore responsible for skin pigmentation. […]
The HEM cells were cultured at 37° C., in a 5% CO2 atmosphere and treated with a determined concentration of the composition C1 or the composition C2. […]
(§1) The coloring intensity determined by the optical density measured at 405 nm is directly correlated to the melanin content.
(§2) The melanin content is calculated by relating the absorbance value to that of the negative control.
(§3) The percentage variation in melanin content compared to the blank test or the negative control is calculated according to the following equation: […]

human skin explants = test: Melanin content test on human skin explants exposed to blue light; format: cell-based; conditions: human skin explants treated with C11 or C12, blue light at 412 nm or 450 nm, total 120 J/cm^2
Protocol: The tests were carried out on human skin explants obtained from plastic surgery. The biopsies are divided into explants of 8 mm diameter and kept for survival in complete medium. at 37° C. and in an atmosphere of 5% CO2.
The skin explants are exposed to blue light, at 412 nm or 450 nm or kept in the dark (control) for 5 hours per day, for 3 days, representing a total irradiation of 120 J/cm^2. Before each exposure, the explants are treated overnight with the compositions C11 or C12.
24 hours after the last irradiation, the explants are collected and incubated in a 1 M NaOH solution at 80° C. for 3 hours, allowing the melanin to solubilize. […]
as §1, §2, §3

For `Oc1ccc(/C=C/c2cc(O)cc3c2[C@@H](c2cc(O)cc(O)c2)[C@H](c2ccc(O)cc2)O3)cc1` (relative stereo) [ε-viniferine, trans-ε-viniferine], the “production of melanin (optical density at 405 nm)” value ([1]; HEM cells treated 24 h before exposure to blue light at 412 nm or 450 nm, 5 h per day for 3 days, versus untreated irradiated cells (NT)) was “significantly reduce the production of melanin”, the “melanin content relative to culture not exposed to blue light” value ([1]; HEM cells, blue light at 450 nm) was “lower the melanin content to the content of a culture of melanocytes not exposed to blue light” and the “melanin content relative to explant not exposed to blue light” value (human skin explants) was “lower the melanin content to the content of an explant not exposed to blue light”.
